Laboratory results published in PubChem BioAssay (NCI).
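GI50 is the concentration that inhibits growth by half. The concentration for full growth arrest is given as TGI.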 Numbered stars: 1 amine (or outer) side, 2 acyl side, 3 side chain; on linkers, the order of the positions; unused ones are H or OH. Bridge positions count the residues as written; N and C are the ends. Square brackets hold non-standard residues; d marks the D form. Peptide text beside a SMILES is read from it. I, II: the chains in the order shown. Actinocin(9to1) = Cc1c2oc3c(C)ccc(C(=O)[*:1])c3nc-2c(C(=O)[*:2])c(N)c1=O; aThr = C[C@H](O)[C@H](N)C(=O)O; NMeV = CN[C@H](C(=O)O)C(C)C; Sar = CNCC(=O)O

Assays:
Test in all cases: inhibition of tumour cell growth, NCI panel, 384-well format
OVCAR-4 ovarian = test system: OVCAR-4 ovarian
SN12C renal = test system: SN12C renal
NCI/ADR-RES ovarian = test system: NCI/ADR-RES ovarian
MDA-MB-435 melanoma = test system: MDA-MB-435 melanoma
HT29 colon = test system: HT29 colon
SK-MEL-28 melanoma = test system: SK-MEL-28 melanoma
SF-295 CNS = test system: SF-295 CNS
OVCAR-8 ovarian = test system: OVCAR-8 ovarian
HCT-15 colon = test system: HCT-15 colon
OVCAR-5 ovarian = test system: OVCAR-5 ovarian
EKVX NSCLC = test system: EKVX NSCLC
MDA-MB-231 breast = test system: MDA-MB-231 breast
MOLT-4 leukemia = test system: MOLT-4 leukemia
SR leukemia = test system: SR leukemia
A549 NSCLC = test system: A549 NSCLC
MALME-3M melanoma = test system: MALME-3M melanoma
ACHN renal = test system: ACHN renal
U251 glioblastoma = test system: U251 glioblastoma
SNB-19 CNS = test system: SNB-19 CNS
OVCAR-3 ovarian = test system: OVCAR-3 ovarian
MCF7 breast = test system: MCF7 breast
RPMI-8226 leukemia = test system: RPMI-8226 leukemia
SK-OV-3 ovarian = test system: SK-OV-3 ovarian
MDA-MB-468 breast = test system: MDA-MB-468 breast
PC-3 prostate = test system: PC-3 prostate
HOP-92 NSCLC = test system: HOP-92 NSCLC
SF-268 CNS = test system: SF-268 CNS
HOP-62 NSCLC = test system: HOP-62 NSCLC
KM12 colon = test system: KM12 colon
UACC-62 melanoma = test system: UACC-62 melanoma
TK-10 renal = test system: TK-10 renal
SNB-75 CNS = test system: SNB-75 CNS
CAKI-1 renal = test system: CAKI-1 renal
NCI-H460 NSCLC = test system: NCI-H460 NSCLC
HCT-116 colon = test system: HCT-116 colon
NCI-H23 lung = test system: NCI-H23 lung
LOX IMVI melanoma = test system: LOX IMVI melanoma
COLO 205 colon = test system: COLO 205 colon
BT-549 breast = test system: BT-549 breast
UACC-257 melanoma = test system: UACC-257 melanoma
A498 renal = test system: A498 renal
M14 melanoma = test system: M14 melanoma
HL-60(TB) leukemia = test system: HL-60(TB) leukemia
SK-MEL-5 melanoma = test system: SK-MEL-5 melanoma
NCI-H226 lung = test system: NCI-H226 lung
IGROV1 ovarian = test system: IGROV1 ovarian
NCI-H522 lung = test system: NCI-H522 lung
RXF 393 renal = test system: RXF 393 renal
HS 578T breast = test system: HS 578T breast
T-47D breast = test system: T-47D breast
NCI-H322M lung = test system: NCI-H322M lung
HCC-2998 colon = test system: HCC-2998 colon
SF-539 CNS = test system: SF-539 CNS
DU-145 prostate = test system: DU-145 prostate
SW-620 colon = test system: SW-620 colon
786-0 renal = test system: 786-0 renal
UO-31 renal = test system: UO-31 renal

NC1(C(=O)N[C@@H](CCO)c2ccc(Cl)cc2)CCN(c2ncnc3[nH]ccc23)CC1
GI50 (OVCAR-4 ovarian): 88.3 µM | TGI (OVCAR-4 ovarian): > 100 µM | GI50 (SN12C renal): 0.815 µM | TGI (SN12C renal): 25.5 µM | GI50 (NCI/ADR-RES ovarian): > 100 µM | TGI (NCI/ADR-RES ovarian): > 100 µM | GI50 (MDA-MB-435 melanoma): 6.05 µM | TGI (MDA-MB-435 melanoma): 87.8 µM | GI50 (HT29 colon): 4.22 µM | TGI (HT29 colon): > 100 µM | GI50 (SK-MEL-28 melanoma): 4.49 µM | TGI (SK-MEL-28 melanoma): > 100 µM | GI50 (SF-295 CNS): 1.14 µM | TGI (SF-295 CNS): 17 µM | GI50 (OVCAR-8 ovarian): 26.4 µM | TGI (OVCAR-8 ovarian): > 100 µM | GI50 (HCT-15 colon): 14.7 µM | TGI (HCT-15 colon): > 100 µM | GI50 (OVCAR-5 ovarian): 21.9 µM | TGI (OVCAR-5 ovarian): 96.1 µM | GI50 (EKVX NSCLC): 5.28 µM | TGI (EKVX NSCLC): > 100 µM | GI50 (MDA-MB-231 breast): 84.9 µM | TGI (MDA-MB-231 breast): > 100 µM | GI50 (MOLT-4 leukemia): 0.453 µM | TGI (MOLT-4 leukemia): 1.88 µM | GI50 (SR leukemia): 1.07 µM | TGI (SR leukemia): 4.49 µM | GI50 (A549 NSCLC): 19.7 µM | TGI (A549 NSCLC): > 100 µM | GI50 (MALME-3M melanoma): 2.43 µM | TGI (MALME-3M melanoma): 15.3 µM | GI50 (ACHN renal): 13.1 µM | TGI (ACHN renal): > 100 µM | GI50 (U251 glioblastoma): 5.38 µM | TGI (U251 glioblastoma): > 100 µM | GI50 (SNB-19 CNS): 18.8 µM | TGI (SNB-19 CNS): > 100 µM | GI50 (OVCAR-3 ovarian): 23.3 µM | TGI (OVCAR-3 ovarian): > 100 µM | GI50 (MCF7 breast): 0.437 µM | TGI (MCF7 breast): > 100 µM | GI50 (RPMI-8226 leukemia): 21.5 µM | TGI (RPMI-8226 leukemia): 84 µM | GI50 (SK-OV-3 ovarian): 1.02 µM | TGI (SK-OV-3 ovarian): > 100 µM | GI50 (MDA-MB-468 breast): 0.279 µM | TGI (MDA-MB-468 breast): 14.7 µM | GI50 (PC-3 prostate): 0.629 µM | TGI (PC-3 prostate): > 100 µM | GI50 (HOP-92 NSCLC): > 100 µM | TGI (HOP-92 NSCLC): > 100 µM | GI50 (SF-268 CNS): 23.8 µM | TGI (SF-268 CNS): > 100 µM | GI50 (HOP-62 NSCLC): 21.1 µM | TGI (HOP-62 NSCLC): > 100 µM | GI50 (KM12 colon): 1.08 µM | TGI (KM12 colon): > 100 µM | GI50 (UACC-62 melanoma): 2.2 µM | TGI (UACC-62 melanoma): 18.6 µM | GI50 (TK-10 renal): 3.3 µM | TGI (TK-10 renal): > 100 µM | GI50 (SNB-75 CNS): 0.366 µM | TGI (SNB-75 CNS): 35.8 µM | GI50 (CAKI-1 renal): 10.9 µM | TGI (CAKI-1 renal): > 100 µM | GI50 (NCI-H460 NSCLC): 0.631 µM | TGI (NCI-H460 NSCLC): 25.2 µM | GI50 (HCT-116 colon): 10.6 µM | TGI (HCT-116 colon): > 100 µM | GI50 (NCI-H23 lung): 15 µM | TGI (NCI-H23 lung): 65.8 µM | GI50 (LOX IMVI melanoma): 22.4 µM | TGI (LOX IMVI melanoma): > 100 µM | GI50 (COLO 205 colon): 5.9 µM | TGI (COLO 205 colon): 73.6 µM | GI50 (BT-549 breast): 0.863 µM | TGI (BT-549 breast): 18.9 µM | GI50 (UACC-257 melanoma): 4.55 µM | TGI (UACC-257 melanoma): 25.7 µM | GI50 (A498 renal): 0.394 µM | TGI (A498 renal): 26.7 µM | GI50 (M14 melanoma): 6.69 µM | TGI (M14 melanoma): 27.6 µM | GI50 (HL-60(TB) leukemia): 12.7 µM | TGI (HL-60(TB) leukemia): 25.9 µM | GI50 (SK-MEL-5 melanoma): 10 µM | TGI (SK-MEL-5 melanoma): 29.6 µM | GI50 (NCI-H226 lung): 13 µM | TGI (NCI-H226 lung): 78.6 µM | GI50 (IGROV1 ovarian): 0.121 µM | TGI (IGROV1 ovarian): 2.09 µM | GI50 (NCI-H522 lung): 9.74 µM | TGI (NCI-H522 lung): 24.2 µM | GI50 (RXF 393 renal): 1.2 µM | TGI (RXF 393 renal): 44 µM | GI50 (HS 578T breast): 0.6 µM | TGI (HS 578T breast): 47 µM | GI50 (T-47D breast): 0.423 µM | TGI (T-47D breast): > 100 µM | GI50 (NCI-H322M lung): 16.2 µM | TGI (NCI-H322M lung): > 100 µM | GI50 (HCC-2998 colon): 2.61 µM | TGI (HCC-2998 colon): > 100 µM | GI50 (SF-539 CNS): 0.41 µM | TGI (SF-539 CNS): 57.7 µM | GI50 (DU-145 prostate): 22.6 µM | TGI (DU-145 prostate): > 100 µM

Cc1c2oc3c(C)ccc(C(=O)N[C@@H]4C(=O)N[C@H](C(C)C)C(=O)N5CCC[C@H]5C(=O)N(C)CC(=O)N(C)[C@@H](C(C)C)C(=O)O[C@H]4C)c3nc-2c(C(=O)N[C@@H]2C(=O)N[C@H](C(C)C)C(=O)N3CCC[C@H]3C(=O)N(C)CC(=O)N(C)[C@@H](C(C)C)C(=O)O[C@H]2C)c(N)c1=O (I: [aThr][dV]P[Sar][NMeV] / II: [aThr][dV]P[Sar][NMeV]; ester I:1-I:C, II:1-II:C; linker I:N-II:N via Actinocin(9to1))
TGI (OVCAR-4 ovarian): < 0.0266 µM | GI50 (NCI/ADR-RES ovarian): 0.571 µM | TGI (NCI/ADR-RES ovarian): 2.83 µM | TGI (HCT-15 colon): 0.069 µM | TGI (EKVX NSCLC): 0.0435 µM | TGI (SW-620 colon): < 0.0351 µM | TGI (A549 NSCLC): 1.37 µM | TGI (ACHN renal): 0.0165 µM | TGI (PC-3 prostate): 0.0571 µM | TGI (A498 renal): < 0.0165 µM | TGI (M14 melanoma): < 0.0112 µM | TGI (786-0 renal): 0.0188 µM | TGI (IGROV1 ovarian): 0.0138 µM | GI50 (UO-31 renal): < 0.0119 µM | TGI (UO-31 renal): 0.0268 µM
